Source: PMC3833878, “In Silico Molecular Comparisons of C. elegans and Mammalian Pharmacology Identify Distinct Targets That Regulate Feeding” (PLoS Biology, 2013)

Experiments:
wild-type C. elegans = experiment: Pharyngeal pumping assay; assay type: in vivo; settings: for EC50: Caenorhabditis elegans, read-out: EC50 of the dose-dependent increase in the pharyngeal pumping rate
Protocol: (§1) Compounds at 1,000× stock concentrations (0.1–10 mM) in DMSO or an equal volume of DMSO were diluted in a suspension of E. coli OP-50 (100 µl of a 3× concentrated overnight culture in LB broth) and absorbed as a single drop onto 3.5 cm plates containing 2.5 ml of NGM agar forming a well-defined lawn of bacteria. For developmental exposures, 20–30 synchronized first larval stage C. elegans derived from alkaline hypochlorite treatment of gravid adults were applied to the preseeded plates and cultured until assay at mid-L4 stage (2 d, 20°C) or as day 1 gravid adults (3 d, 20°C). For naïve adult exposures, synchronized first larval stage animals were cultured on NGM-agar plates seeded with E. coli OP-50 for 3 d at 20°C, then transferred to assay plates, and pumping was assayed 1 to 16 h later. Comparisons between vehicle-treated and compound-treated animals were always performed between animals at the same developmental stage and same exposure time. Pharyngeal pumping was counted by live observation at 115–200× magnification using a stereo microscope and recorded at 10 s intervals using a manually controlled digital cell counter. Alternatively, C. elegans pumping was recorded for longer intervals (30–60 s) using bright-field time-lapse microscopy at 120× magnification with a 20 images per second acquisition rate. The resulting movies were analyzed manually at a playback rate of 10 images per second.
(§2) Significance was determined by one-way ANOVA applying a Dunnett's posttest when comparing multiple treatments to a single control and a Bonferroni posttest when comparing the more than two treatments against one another. For pairwise nonrepeated measured comparisons, a student's t test was used. To express data as a percentage of control, the pumping rates of compound-treated animals were divided by the mean pumping rate of the DMSO-treated wild-type animals measured in the same experiment, unless indicated otherwise. Error bars on the control samples indicate the variation around that mean, which is utilized in all statistical calculations.

Flt-3 receptor = molecular target: Flt-3 receptor; set-up: method as in PMID 20153646; settings: cited from earlier work
tachykinin receptor-1 = tachykinin receptor-1 (Homo sapiens, UniProt P25103); experiment: Cell-based Ca flux assay, cells stimulated by neurokinin-1 peptide (Multispan); settings: marked with footnote d in Figure 2
Protocol: (§3) Tachykinin, ghrelin, and calcium-sensing receptor activity were measured using a cell-based Ca flux assay by Multispan, Inc. (Hayward, California). Cholescystokinin A and B receptors were assayed for effects on cAMP production, and nicotinic acid receptor activity was measured in a cell-based assay of forskolin-stimulated cAMP production by Multispan, Inc. […], PP2A phosphatase activity assays were performed by CEREP (Celle l'Evescault, France) using PP2A from human erythrocytes. Phospholipase C from Bacillus cereus was assayed by CEREP, Inc. using glycero-phosphatidyl ethanolamine as a substrate, monitoring diacyl glycerol production. Radioligand binding assays for PPAR-α, γ, δ and the androgen receptor were performed by CEREP, Inc. CARNA Biosciences (Kobe, Japan) performed in vitro kinase activity assays using recombinant catalytic domains and measured phosphorylation of an Src-derived peptide for Flt-3 and phosphatidyl inositol for PI3KCA. Radioligand binding assays for the oxytocin receptor, D4 dopamine receptor, cannabinoid CB2 receptor, and angiotensin type I and II receptors were performed as described previously, as were cell-based activity assays for mGluR 1a, 2, 4, 5, 6, and 8 [60]–[62].
Supplementary file pbio.1001712.s001.tif: Figure S1 Dose-response measurements that validate SEA predictions for GPCRs. […]

C. elegans = test system: C. elegans; set-up: method as in earlier work; settings: earlier phenotypic screen ref 11; cited from earlier work
tkr-1(RNAi) C. elegans = experiment: Pharyngeal pumping assay, compound on RNAi-treated animals; assay type: in vivo
Protocol: Synchronized first larval stage C. elegans were cultured for 3 d at 20°C on a lawn of HT115 E. coli induced with IPTG to express double-stranded RNAi as described.
Compounds at 1,000× stock concentrations (0.1–10 mM) in DMSO or an equal volume of DMSO were diluted in a suspension of E. coli OP-50 (100 µl of a 3× concentrated overnight culture in LB broth) and absorbed as a single drop onto 3.5 cm plates containing 2.5 ml of NGM agar forming a well-defined lawn of bacteria. […] Pharyngeal pumping was counted by live observation at 115–200× magnification using a stereo microscope and recorded at 10 s intervals using a manually controlled digital cell counter. Alternatively, C. elegans pumping was recorded for longer intervals (30–60 s) using bright-field time-lapse microscopy at 120× magnification with a 20 images per second acquisition rate. The resulting movies were analyzed manually at a playback rate of 10 images per second.
Significance was determined by one-way ANOVA applying a Dunnett's posttest when comparing multiple treatments to a single control and a Bonferroni posttest when comparing the more than two treatments against one another. For pairwise nonrepeated measured comparisons, a student's t test was used. […]

tachykinin receptor-3 = tachykinin receptor-3 (Homo sapiens, UniProt P29371); experiment: Cell-based Ca flux assay (Multispan)
Protocol: as §3

tachykinin receptor-2 = tachykinin receptor-2 (Homo sapiens, UniProt P21452); experiment: Cell-based Ca flux assay (Multispan)
Protocol: as §3

[1] = test system: gnrr-1(ok238) mutant C. elegans; experiment: Pharyngeal pumping assay, compound on high-feeding mutant; assay type: in vivo; settings: percentage of the mutant's pumping rate on DMSO; 10 µM B16, D20, K9, F15, H6; 200 nM L-371257, SB 222200; 2 µM MMPIP, 5-flurox
Protocol: as §1, §2
(§4) The pumping rates are expressed as a percentage of the mutant’s pumping rate on DMSO, the vehicle control. p-values were calculated relative to DMSO treatment of each mutant by one-way ANOVA using Dunnett’s multiple comparison test.

[2] = test system: mgl-2(tm355) mutant C. elegans; experiment: as above; assay type: in vivo; settings: percentage of the mutant's pumping rate on DMSO; 10 µM B16, D20, K9, F15, H6; 200 nM L-371257, SB 222200; 2 µM MMPIP, 5-flurox
Protocol: as §1, §2, §4

[3] = test system: gnrr-3(tm4152) mutant C. elegans; experiment: as above; assay type: in vivo; settings: percentage of the mutant's pumping rate on DMSO; 10 µM B16, D20, K9, F15, H6; 200 nM L-371257, SB 222200; 2 µM MMPIP, 5-flurox
Protocol: as §1, §2, §4

[4] = test system: ver-3(ok891) mutant C. elegans; experiment: as above; assay type: in vivo; settings: percentage of the mutant's pumping rate on DMSO; 10 µM B16, D20, K9, F15, H6; 200 nM L-371257, SB 222200; 2 µM MMPIP, 5-flurox
Protocol: as §1, §2, §4

[5] = test system: ver-2(ok897) mutant C. elegans; experiment: as above; assay type: in vivo; settings: percentage of the mutant's pumping rate on DMSO; 10 µM B16, D20, K9, F15, H6; 200 nM L-371257, SB 222200; 2 µM MMPIP, 5-flurox
Protocol: as §1, §2, §4

Oxtr = molecular target: Oxtr; set-up: method as in PMID 7473590; settings: cited from earlier work

Sequence of tachykinin receptor-1 (P25103 whole entry): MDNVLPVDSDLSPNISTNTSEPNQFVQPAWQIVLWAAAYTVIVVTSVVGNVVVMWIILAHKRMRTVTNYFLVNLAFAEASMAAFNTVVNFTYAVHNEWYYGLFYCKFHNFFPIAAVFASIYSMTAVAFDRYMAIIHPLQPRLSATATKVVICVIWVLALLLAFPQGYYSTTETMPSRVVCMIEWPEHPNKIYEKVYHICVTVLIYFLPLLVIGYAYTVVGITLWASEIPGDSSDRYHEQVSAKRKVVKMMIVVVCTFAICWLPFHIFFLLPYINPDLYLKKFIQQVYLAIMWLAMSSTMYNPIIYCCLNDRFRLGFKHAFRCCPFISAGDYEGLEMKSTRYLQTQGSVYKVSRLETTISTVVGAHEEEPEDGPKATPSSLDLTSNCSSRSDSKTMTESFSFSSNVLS
Sequence of tachykinin receptor-3 (P29371 whole entry): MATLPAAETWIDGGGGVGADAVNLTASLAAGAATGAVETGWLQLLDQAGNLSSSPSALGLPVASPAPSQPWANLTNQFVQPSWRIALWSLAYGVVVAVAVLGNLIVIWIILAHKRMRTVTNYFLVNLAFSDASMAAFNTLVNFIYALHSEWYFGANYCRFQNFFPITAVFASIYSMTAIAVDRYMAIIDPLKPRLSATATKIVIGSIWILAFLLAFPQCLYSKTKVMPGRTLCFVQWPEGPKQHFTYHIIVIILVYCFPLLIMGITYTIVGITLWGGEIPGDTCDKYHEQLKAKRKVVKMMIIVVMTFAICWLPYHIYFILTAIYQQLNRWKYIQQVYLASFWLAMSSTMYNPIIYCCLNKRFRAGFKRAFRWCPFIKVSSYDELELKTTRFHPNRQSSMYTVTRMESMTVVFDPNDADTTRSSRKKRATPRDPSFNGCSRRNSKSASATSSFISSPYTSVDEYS
Sequence of tachykinin receptor-2 (P21452 whole entry): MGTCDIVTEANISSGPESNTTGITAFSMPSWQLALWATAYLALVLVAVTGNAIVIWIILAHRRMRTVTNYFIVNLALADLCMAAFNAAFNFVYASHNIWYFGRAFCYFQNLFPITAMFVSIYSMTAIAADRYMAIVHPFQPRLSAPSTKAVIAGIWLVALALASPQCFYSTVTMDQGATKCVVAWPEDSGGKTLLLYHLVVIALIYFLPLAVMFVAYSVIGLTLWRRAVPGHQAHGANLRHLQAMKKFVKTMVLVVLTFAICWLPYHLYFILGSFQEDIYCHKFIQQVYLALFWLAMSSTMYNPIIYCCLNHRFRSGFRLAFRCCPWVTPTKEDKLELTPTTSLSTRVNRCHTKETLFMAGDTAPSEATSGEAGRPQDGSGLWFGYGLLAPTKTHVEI

O=C1Nc2ccc(F)cc2/C1=C1/Nc2ccccc2C1=NO [5-flurox, 5′-fluoroindirubinoxime, reference compound]
EC50 (wild-type C. elegans): 40 nM | IC50 (Flt-3 receptor): 15 nM

COc1ccc(OC)c(-c2cc(NC(=O)c3ccccc3C(N)=O)c3ccccc3n2)c1 [H6]
Ki (tachykinin receptor-1): 1900 nM | increase in pharyngeal pumping (wild-type C. elegans; 10 µM, cultured 3 d from L1, long-term video (60 s) and short-term manual (10 s) measurements): 7%–12% | exposure time after which the feeding elevating effect was notable (wild-type C. elegans; 10 µM, naïve day 1 gravid adults): ~16 h | effect on the pharyngeal pumping rate (wild-type C. elegans; wild-type, 10 µM versus 0.1% DMSO): increased | Nile Red staining (C. elegans): increased | Pharmacological relationship (tkr-1(RNAi) C. elegans; to C. elegans tkr-1 (C38C10.1), homolog of human Tkr-1): antagonist | Ki (tachykinin receptor-3): > 10000 nM | Ki (tachykinin receptor-2): > 10000 nM

COc1cc(OC2CCN(C(C)=O)CC2)ccc1C(=O)N1CCC(N2C(=O)OCc3ccccc32)CC1 [L-371257, 1-(1-[4-[(N-acetyl-4-piperidinyl)oxy]-2-methoxybenzoyl]piperidin-4-yl)-4H-3,1-benzoxazin-2(1H)-one, reference compound]
EC50 (wild-type C. elegans): 10 nM | pharyngeal pumping rate, mean (tkr-1(RNAi) C. elegans; percentage of the pumping rate of tkr-1(RNAi) animals on DMSO, 10 µM B16, D20, K9, F15, H6, 200 nM L-371257, SB 222200, 2 µM MMPIP, 5-flurox): 109.9% | pharyngeal pumping rate, mean [1]: 99.2% | pharyngeal pumping rate, mean [2]: 105.0% | pharyngeal pumping rate, mean [3]: 108.5% | pharyngeal pumping rate, mean [4]: 94.8% | pharyngeal pumping rate, mean [5]: 100.8% | Ki (Oxtr): 4.6 nM
